These results are taken from patent US20230286948A1 (HUYABIO International, LLC, priority 2022, published 2023).

The target in the test is MLL1-WDR5 protein-protein interaction (Homo sapiens (Human), UniProt P61964). Description: WDR5 TR-FRET assay (MLL1-WDR5 PPI inhibition). The conditions noted are these: 5 nM WDR5 protein, 10 nM peptide, read-out: IC50 (nM), MLL1-WDR5 PPI inhibitory activity. It counts as binding. How it is done:
WDR5 TR-FRET Assay Procedure: Stock compounds were transferred to the assay plate by Echo Liquid Handler. […] Stock compounds were incubated with WDR5 protein for 30 min at room temperature. Plates were covered, protected from light and incubated for 60 min at room temperature, after adding the peptide and Tb-Ab. EnVision Multimode Plate Reader (PerkinElmer) was used for the TR-FRET assay with excitation wavelength at 340 nm and emission wavelength at 495 and 520 nm. The ratio of the 520/495 wavelengths were used to assess the degree of the FRET signal. IC50 was calculated by fitting the inhibition data using XLfit software to sigmoidal dose-response model.

On to `Cc1c(Cl)ncc(C(=O)Nc2cc(-n3cc(C(=O)NCCCN4CCOCC4)nn3)ccc2N2CCN(C)CC2)c1Cl` [Example 21, 4,6-dichloro-5-methyl-N-(2-(4-methylpiperazin-1-yl)-5-(4-((3-morpholinopropyl)carbamoyl)-1H-1,2,3-triazol-1-yl)phenyl)nicotinamide], for which the IC50 was found to be 6570 nM. With `C[C@H]1CN(c2ccc(-n3cc(C(=O)NCCCN4CCOCC4)nn3)cc2NC(=O)c2c[nH]c(=O)cc2C(F)(F)F)CCN1C` [Example 10, (S)-N-(2-(3,4-dimethylpiperazin-1-yl)-5-(4-((3-morpholinopropyl)carbamoyl)-1H-1,2,3-triazol-1-yl)phenyl)-6-oxo-4-(trifluoromethyl)-1,6-dihydropyridine-3-carboxamide] the figure was 9.12 nM; with `COc1cc(C(F)(F)F)c(C(=O)Nc2cc(-n3cc(C(=O)NCCCN4CCOCC4)nn3)c(F)cc2N2C[C@@H](C)N(C)[C@@H](C)C2)cn1` [Example 55], 2820 nM; with `C[C@H]1CN(c2cc(F)c(-n3cc(C(=O)N4CCN(C)CC4)nn3)cc2NC(=O)c2cnc(Cl)cc2C(F)(F)F)C[C@H](C)N1C` [HYBI-284], 1270 nM. The value for `Cc1cc(N)ncc1C(=O)Nc1cc(-n2cc(C(=O)NCCCN3CCOCC3)nn2)ccc1N1CCN(C)CC1` [Example 24, 6-amino-4-methyl-N-(2-(4-methylpiperazin-1-yl)-5-(4-((3-morpholinopropyl)carbamoyl)-1H-1,2,3-triazol-1-yl)phenyl)nicotinamide] was above 10000 nM; that for `Cc1cc(Cl)c(C(=O)Nc2cc(-n3cc(C(=O)NCCCN4CCOCC4)nn3)ccc2N2CCN(C)CC2)cc1N` [Example 49, 1-(3-(5-amino-2-chloro-4-methylbenzamido)-4-(4-methylpiperazin-1-yl)phenyl)-N-(3-morpholinopropyl)-1H-1,2,3-triazole-4-carboxamide] was 4370 nM; that for `CCOc1ncc(C(=O)Nc2cc(-n3cc(C(=O)NCCCN4CCOCC4)nn3)ccc2N2CCN(C)CC2)c(C(F)(F)F)n1` [Example 29, 2-ethoxy-N-(2-(4-methylpiperazin-1-yl)-5-(4-((3-morpholinopropyl)carbamoyl)-1H-1,2,3-triazol-1-yl)phenyl)-4-(trifluoromethyl)pyrimidine-5-carboxamide] was above 10000 nM. With `COc1cc(C(F)(F)F)c(C(=O)Nc2cc(-n3cc(C(=O)NC4CCN(C)CC4)nn3)c(F)cc2N2C[C@@H](C)N(C)[C@@H](C)C2)cn1` [Example 54, N-(4-fluoro-5-(4-((1-methylpiperidin-4-yl)carbamoyl)-1H-1,2,3-triazol-1-yl)-2-((3S,5R)-3,4,5-trimethylpiperazin-1-yl)phenyl)-6-methoxy-4-(trifluoromethyl)nicotinamide] the figure was 618 nM; with `COc1cnc(C(=O)Nc2cc(-n3cc(C(=O)NCCCN4CCOCC4)nn3)ccc2N2CCN(C)CC2)c(Cl)n1` [Example 35, 3-chloro-5-methoxy-N-(2-(4-methylpiperazin-1-yl)-5-(4-((3-morpholinopropyl)carbamoyl)-1H-1,2,3-triazol-1-yl)phenyl)pyrazine-2-carboxamide], above 10000 nM. With `CCOc1cc(C(F)(F)F)c(C(=O)Nc2cc(-n3cc(C(=O)NCCCN4CCOCC4)nn3)ccc2N2CCN(C)CC2)cn1` [Example 17, 6-ethoxy-N-(2-(4-methylpiperazin-1-yl)-5-(4-((3-morpholinopropyl)carbamoyl)-1H-1,2,3-triazol-1-yl)phenyl)-4-(trifluoromethyl)nicotinamide], the IC50 is above 10000 nM. With `CN1CCN(c2ccc(-n3cc(C(=O)NCCCN4CCOCC4)nn3)cc2NC(=O)c2cnc(Cl)cc2N(C)C)CC1` [Example 23, 6-chloro-4-(dimethylamino)-N-[2-(4-methylpiperazin-1-yl)-5-[4-(3-morpholinopropylcarbamoyl)triazol-1-yl]phenyl]pyridine-3-carboxamide] the figure was above 10000 nM; with `CSc1ncc(C(=O)Nc2cc(-n3cc(C(=O)NCCCN4CCOCC4)nn3)ccc2N2CCN(C)CC2)c(C(F)(F)F)n1` [Example 27, N-(2-(4-methylpiperazin-1-yl)-5-(4-((3-morpholinopropyl)carbamoyl)-1H-1,2,3-triazol-1-yl)phenyl)-2-(methylthio)-4-(trifluoromethyl)pyrimidine-5-carboxamide], above 10000 nM; with `CN1CCN(c2ccc(-n3cc(C(=O)NCCCN4CCOCC4)nn3)cc2NC(=O)c2c[nH]c(=O)cc2C(F)(F)F)CC1` [Example 4], 51.3 nM. The value for `C[C@H]1CN(c2ccc(-n3cc(C(=O)NCCCN4CCOCC4)nn3)cc2NC(=O)c2cnc(Cl)cc2C(F)(F)F)CCN1C` [Example 9, (S)-6-chloro-N-(2-(3,4-dimethylpiperazin-1-yl)-5-(4-((3-morpholinopropyl)carbamoyl)-1H-1,2,3-triazol-1-yl)phenyl)-4-(trifluoromethyl)nicotinamide] was above 10000 nM; that for `COc1cnc(C(=O)Nc2cc(-n3cc(C(=O)NCCCN4CCOCC4)nn3)ccc2N2CCN(C)CC2)c(OC)n1` [Example 36, 3,5-dimethoxy-N-(2-(4-methylpiperazin-1-yl)-5-(4-((3-morpholinopropyl)carbamoyl)-1H-1,2,3-triazol-1-yl)phenyl)pyrazine-2-carboxamide] was above 10000 nM; that for `C[C@@H]1CN(c2cc(F)c(-n3cc(C(=O)N4CCN(C)CC4)nn3)cc2NC(=O)c2cnc(Cl)cc2C(F)(F)F)C[C@H](C)N1C` [Example 51, 6-chloro-N-(4-fluoro-5-(4-(4-methylpiperazine-1-carbonyl)-1H-1,2,3-triazol-1-yl)-2-((3S,5R)-3,4,5-trimethylpiperazin-1-yl)phenyl)-4-(trifluoromethyl)nicotinamide] was 326 nM.

For the molecule `COc1nc(SC)ncc1C(=O)Nc1cc(-n2cc(C(=O)NCCCN3CCOCC3)nn2)ccc1N1CCN(C)CC1` [Example 30, 4-methoxy-N-(2-(4-methylpiperazin-1-yl)-5-(4-((3-morpholinopropyl)carbamoyl)-1H-1,2,3-triazol-1-yl)phenyl)-2-(methylthio)pyrimidine-5-carboxamide], the IC50 was above 10000 nM. Turning to `CN1CCN(c2ccc(-n3cc(C(=O)NCCCN4CCOCC4)nn3)cc2NC(=O)c2nnc(Cl)cc2Cl)CC1` [Example 32, 4,6-dichloro-N-(2-(4-methylpiperazin-1-yl)-5-(4-((3-morpholinopropyl)carbamoyl)-1H-1,2,3-triazol-1-yl)phenyl)pyridazine-3-carboxamide], the IC50 is above 10000 nM.

For the molecule `C[C@@H]1CN(c2ccc(-n3cc(C(=O)NCCCN4CCOCC4)nn3)cc2NC(=O)c2c[nH]c(=O)cc2C(F)(F)F)C[C@H](C)N1C` [Example 2, N-(5-(4-((3-morpholinopropyl)carbamoyl)-1H-1,2,3-triazol-1-yl)-2-((3S,5R)-3,4,5-trimethylpiperazin-1-yl)phenyl)-6-oxo-4-(trifluoromethyl)-1,6-dihydropyridine-3-carboxamide], the IC50 was found to be 16.7 nM.

With `CN1CCN(c2ccc(-n3cc(C(=O)NCCCN4CCOCC4)nn3)cc2NC(=O)c2ccc(Cl)nc2C(F)(F)F)CC1` [Example 37, 6-chloro-N-(2-(4-methylpiperazin-1-yl)-5-(4-((3-morpholinopropyl)carbamoyl)-1H-1,2,3-triazol-1-yl)phenyl)-2-(trifluoromethyl)nicotinamide], the IC50 is 1960 nM. For the molecule `CCN(CC)C(=O)c1cn(-c2cc(NC(=O)c3cnc(Cl)cc3Cl)c(N3C[C@@H](C)N(C)[C@@H](C)C3)cc2F)nn1` [Example 56, 4,6-dichloro-N-[5-[4-(diethylcarbamoyl)triazol-1-yl]-4-fluoro-2-[(3R,5S)-3,4,5-trimethylpiperazin-1-yl]phenyl]pyridine-3-carboxamide], the IC50 is 1160 nM.

For the molecule `CN1CCN(c2ccc(-n3cc(C(=O)NCCCN4CCOCC4)nn3)cc2NC(=O)c2ncc(N)cn2)CC1` [HYBI-267, 5-amino-N-(2-(4-methylpiperazin-1-yl)-5-(4-((3-morpholinopropyl)carbamoyl)-1H-1,2,3-triazol-1-yl)phenyl)pyrimidine-2-carboxamide], the IC50 is above 10000 nM. The value for `C[C@@H]1CN(c2cc(F)c(-n3cc(C(=O)N4CCN(C)CC4)nn3)cc2NC(=O)c2cnc(Cl)cc2Cl)C[C@H](C)N1C` [Example 57, 4,6-dichloro-N-(4-fluoro-5-(4-(4-methylpiperazine-1-carbonyl)-1H-1,2,3-triazol-1-yl)-2-((3S,5R)-3,4,5-trimethylpiperazin-1-yl)phenyl)nicotinamide] was 2170 nM. `CN1CCN(c2ccc(-n3cc(C(=O)NCCCN4CCOCC4)nn3)cc2NC(=O)c2ccc(C#N)nc2C(F)(F)F)CC1` [Example 39, 6-cyano-N-[2-(4-methylpiperazin-1-yl)-5-[4-(3-morpholinopropylcarbamoyl)triazol-1-yl]phenyl]-2-(trifluoromethyl)pyridine-3-carboxamide]: the IC50 was found to be 1150 nM.

In the case of `Cc1cc(C(F)(F)F)c(C(=O)Nc2cc(-n3cc(C(=O)NCCCN4CCOCC4)nn3)ccc2N2CCN(C)CC2)cn1` [Example 12, 6-methyl-N-(2-(4-methylpiperazin-1-yl)-5-(4-((3-morpholinopropyl)carbamoyl)-1H-1,2,3-triazol-1-yl)phenyl)-4-(trifluoromethyl)nicotinamide], the IC50 was above 10000 nM.

For `CN1CCN(c2ccc(-n3cc(C(=O)NCCCN4CCOCC4)nn3)cc2NC(=O)c2cnc(N)cc2C(F)(F)F)CC1` [Example 18, 6-amino-N-(2-(4-methylpiperazin-1-yl)-5-(4-((3-morpholinopropyl)carbamoyl)-1H-1,2,3-triazol-1-yl)phenyl)-4-(trifluoromethyl)nicotinamide], the IC50 is above 10000 nM.
